Source: patent US12251449B2, “Synthetic multidomain peptide biomaterials that inhibit inducible nitric oxide synthase” (William Marsh Rice University, priority 2019, dated 2025)
“Also recorded” adds a separate entry of the source. *1 amine or outer side, *2 acyl side, *3 side chain or, on linkers, in order; H or OH if unused. Where a SMILES comes first, the peptide text is derived from it. [ ]: non-standard residue; d: D form. X1 = CC(=N)NCCCC[C@H](N[*:1])C(=O)[*:2]

What was measured:
[1] = Subcutaneous hydrogel implants, histology (persistence, degradation, host response); assay type: in vivo, mice; details: 3-21 days
Procedure: (§1) Subcutaneous experiments and histology. C57BL/6J female mice were purchased from The Jackson Laboratory at age 8-12 weeks for subcutaneous characterization experiments. Mice were housed under specific pathogen-free conditions in standard temperature and lighting conditions with free access to food and water, and experiments were conducted with approval of the Institutional Animal Care and Use Committee (IACUC) at Rice University and according to NIH guidelines. Mice were injected with 100 μL MDP hydrogels in each of four separate sites in the subcutaneous space of the dorsal flank after the skin was shaved and sterilized with alcohol. At days 3, 7, 14, and 21 the mice were euthanized and the dorsal skin around the entire implant was removed, fixed overnight in 10% neutral buffered formalin, processed and paraffin embedded, and finally sectioned at […] thickness for staining using standard Masson's trichrome or hematoxylin and eosin (H&E) procedures, as well as immunohistochemical analyses (e.g., anti-nitrotyrosine IHC, or α-SMA blood vessel analysis).
Evaluation of material biocompatibility, degradation, and immune response profile in vivo was performed by histological analysis of hydrogel implants injected subcutaneously in healthy mice. […]

MOC1 tumors = experiment: MOC orthotopic murine model of oral cancer (Example 9); details: established 4-5 mm MOC1 tumors, single 30 μl intratumoral injection
Procedure: MOC orthotopic murine model of oral cancer. MOC1 tumors were established by injecting 2×10^6 cells (70%:30% cells: Matrigel®Matrix) into the maxillary vestibule of the left oral cavity in C57BL/6J mice. […] Tumor growth was monitored by tumor size measurements (in diameter) taken at least two times per week using digital calipers to measure the longest dimension (single dimension). Data was then analyzed for Kaplan-Meier survival and tumor growth curves. […] Excessive tumor burden, defined as tumor diameter reaching 12 mm, tumor ulceration, or a weight loss of greater than 20% were factors that were considered for all endpoints in tumor growth and survival data.
Statistical methods. Statistical analyses were performed using Prism 7.0 (GraphPad, San Diego, CA). Statistical analyses for Kaplan-Meier survival curves were performed using the Log-rank/Mantel-Cox test. Statistical significance for tumor growth curves was determined by a two-way ANOVA test followed by selected comparison using Tukey's multiple comparison tests with multiple comparison correction. All p values were two-sided and p values less than 0.05 were considered significant.

B16-F0 melanoma tumors = experiment: Tumor growth in the B16-F0 melanoma model; assay type: in vivo, mice; details: monotherapy, single intratumoral injection
Procedure: Evaluation of in vivo VEGF reduction using murine B16-F0 melanoma tumor model. C57BL/6J male mice were purchased from The Jackson Laboratory. Tumor inoculation was performed when mice reached 10-14 weeks of age. All experiments were performed with approval of IACUC at Baylor College of Medicine (BCM) and followed established protocols. B16-F0 melanoma cell line was purchased from American Type Culture Collection (ATCC) and maintained according to manufacturer instructions (DMEM high-glucose with 10% fetal bovine serum and 1% penicillin/streptomycin). C57BL/6J mice were injected subcutaneously (s.c.) with 3×10^5 B16-F0 cells in a single flank. Once tumors became palpable (day 7 post-inoculation) mice were injected intratumorally (i.t.) with either vehicle buffer control Hank's Balanced Salt Solution (HBSS), free L-NIL dissolved in HBSS at 20 mM, K2-MDP hydrogel at 1 wt. % (5.6 mM peptide), or L-NIL-MDP hydrogel at 1 wt. % (5.2 mM peptide, or approximately 20 mM L-NIL functional groups). All injections were done using 100 μL total injection volume.

iNOS = experiment: Anti-nitrotyrosine immunostaining of subcutaneously injected hydrogels; assay type: in vivo, mice; details: subcutaneous implants, 3 and 7 days post injection
Procedure: as §1
Immunohistochemistry staining was performed on hydrogel implant tissue sections to further study in vivo properties of the L-NIL-MDP compared to related cationic MDPs. Anti-nitrotyrosine immunostaining was used to assess relative levels of nitrosylation of tyrosine within and around the subcutaneously injected hydrogel implants as a marker of iNOS inhibition (FIGS. 7A-H). It is known that the formation of nitric oxide (NO) and other nitrogen oxides in vivo can lead to observable post-translation modifications of peptides and proteins (Ischiropoulos, 2003). For example, surface-exposed 3-nitrotyrosine can be used as a marker of cell or tissue inflammation and damage by reactive nitrogen and oxygen species such as NO (Ahsan, 2013). The higher the local levels of iNOS activity, the greater should be the density of nitrosylated tyrosine. Therefore, visualization of nitrotyrosine levels by targeted antibodies can serve as a general indication of in vivo iNOS activity, or in the case of the L-NIL-MDP, local iNOS inhibition.

[2] = CDN drug release kinetics from hydrogels; assay type: physicochemical
Procedure: Drug release kinetics. For release kinetics studies of CDN release from various hydrogel formulations, aliquots of CDN-loaded gel (30 μL each) were deposited into 96 well Falcon® flat bottom plates (Becton Dickinson Labware, Franklin Lakes, NJ). 30 μL gel was pipetted to generate a cylindrical puck in each well for each experiment. The pipetted gels were allowed to shear recover for approximately 5-10 min before adding 200 μL of the relevant buffer to the top of the gels (1× HBSS for all MDPs, 1× DPBS for collagen, Matrigel, 1× HBSS with 0.1 M CaCl2) for alginate, etc. according to the gelation requirements of the material). The addition of buffer was defined as t=0 for the beginning of release kinetics experiments. Table 1 summarizes the material conditions and preparation methods used for various comparative CDN delivery kinetics studies.
A Nanodrop 2000C Spectrophotometer (Thermo Scientific) was used to measure drug release by UV absorbance at 259 nm for CDN ML RR-S2 CDA, using an extinction coefficient of 24,000 M^−1cm^−1 (259 nm). Absorbance measurements were obtained by removing […] from the top of the liquid buffers above the loaded gels, over time measuring the increase in absorbance. Over the course of the first 24 hours, release of CDN was measured usually every 1-2 hours and converted to total percent released, with additional measurements also made every 24 hours for up to a week to establish when equilibrium had been reached.

CC(=N)NCCCC[C@H](NC(=O)[C@H](CCCCNC(C)=N)NC(=O)[C@H](CC(C)C)NC(=O)[C@H](CO)NC(=O)[C@H](CC(C)C)NC(=O)[C@H](CO)NC(=O)[C@H](CC(C)C)NC(=O)[C@H](CO)NC(=O)[C@H](CC(C)C)NC(=O)[C@H](CO)NC(=O)[C@H](CC(C)C)NC(=O)[C@H](CO)NC(=O)[C@H](CC(C)C)NC(=O)[C@H](CO)NC(=O)[C@H](CCCCNC(C)=N)NC(=O)[C@H](CCCCNC(C)=N)NC(C)=O)C(N)=O [L-NIL-MDP] (Ac-[X1][X1]SLSLSLSLSLSL[X1][X1]-NH2)
inflammatory reaction after injection (in words) [1]: does not cause a chronic inflammatory reaction
median survival (MOC1 tumors): 44 days
tumor growth reduction (in words) (B16-F0 melanoma tumors): no favorable effect on tumor growth reduction
nitrotyrosine staining intensity (in words) (iNOS): significantly lower; also recorded: lowest degree of nitrotyrosine staining
CDN release profile (in words) [2]: comparable or even better controlled release
